In patent publication US20080118589A1, “Pharmaceutical formulations of rhodiola crenulata and methods of use thereof” (priority 2005, published 2008):
Blank lines part the entries; values can stand above or below the molecule they belong to.

Experiments:
[1] = system: MDA-MB-231 Cells; assay: MTS assay, growth arrest by retinoids +/-Rhodiola; format: cell-based, human; conditions: for chemosensitivity (MTS assay): retinoid with Rhodiola, data not shown
Description: Rhodiola crenulata extracts were administered to MDA-MB-231 cells in the presence or absence of either 1 μM or 10 μM all trans retinoic acid (ATRA), and cell viability/cytotoxicity was monitored using the MTS assay, as described above, and monitored for absorbance at 490 nm as indicative of chemosensitivity/resistance to the ATRA administered.

[2] = target: T1, telomerase activity in MDA-MB-231 breast cancer cells (Homo sapiens, UniProt O14746); assay: Telomerase activity (qPCR); format: cell-based; conditions: Rhodiola crenulata 100 μg/mL, tamoxifen 10 μM
T1 construct: telomerase activity in human MDA-MB-231 breast cancer cells; endogenous in cells; host or cells: MDA-MB-231
Description: FIGS. 16 and 17 show the effect of Rhodiola crenulata (100 μg/mL) and tamoxifen (10 μM) on telomerase activity in human MDA-MB-231 breast cancer cells at 24 hr and 72 hr, respectively.
The breast cancer cell lines MDA-MB-231, V14, 76N tert (an immortalized epithelial breast cancer cell line), and 76N p53 239 (immortalized by presence of a dominant negative p53 gene) were treated as indicated above for 24 hours at 100 μg/mL Rhodiola crenulata.

[3] = system: MDA-MB-231 Cells; assay: Death time course with Tamoxifen, Rhodiola, or both; format: cell-based, human
From the text: FIG. 8 is a graph showing a Death Time Course of MDA-MB-231 Cells treated with Tamoxifen, Rhodiola, or Tamoxifen plus Rhodiola.
FIG. 8 is similar to FIG. 7, but this experiment involved a time course of MDA-MB-231 Cells treated with Tamoxifen or Rhodiola alone, or Tamoxifen and Rhodiola together.

T1 sequence (O14746 whole entry): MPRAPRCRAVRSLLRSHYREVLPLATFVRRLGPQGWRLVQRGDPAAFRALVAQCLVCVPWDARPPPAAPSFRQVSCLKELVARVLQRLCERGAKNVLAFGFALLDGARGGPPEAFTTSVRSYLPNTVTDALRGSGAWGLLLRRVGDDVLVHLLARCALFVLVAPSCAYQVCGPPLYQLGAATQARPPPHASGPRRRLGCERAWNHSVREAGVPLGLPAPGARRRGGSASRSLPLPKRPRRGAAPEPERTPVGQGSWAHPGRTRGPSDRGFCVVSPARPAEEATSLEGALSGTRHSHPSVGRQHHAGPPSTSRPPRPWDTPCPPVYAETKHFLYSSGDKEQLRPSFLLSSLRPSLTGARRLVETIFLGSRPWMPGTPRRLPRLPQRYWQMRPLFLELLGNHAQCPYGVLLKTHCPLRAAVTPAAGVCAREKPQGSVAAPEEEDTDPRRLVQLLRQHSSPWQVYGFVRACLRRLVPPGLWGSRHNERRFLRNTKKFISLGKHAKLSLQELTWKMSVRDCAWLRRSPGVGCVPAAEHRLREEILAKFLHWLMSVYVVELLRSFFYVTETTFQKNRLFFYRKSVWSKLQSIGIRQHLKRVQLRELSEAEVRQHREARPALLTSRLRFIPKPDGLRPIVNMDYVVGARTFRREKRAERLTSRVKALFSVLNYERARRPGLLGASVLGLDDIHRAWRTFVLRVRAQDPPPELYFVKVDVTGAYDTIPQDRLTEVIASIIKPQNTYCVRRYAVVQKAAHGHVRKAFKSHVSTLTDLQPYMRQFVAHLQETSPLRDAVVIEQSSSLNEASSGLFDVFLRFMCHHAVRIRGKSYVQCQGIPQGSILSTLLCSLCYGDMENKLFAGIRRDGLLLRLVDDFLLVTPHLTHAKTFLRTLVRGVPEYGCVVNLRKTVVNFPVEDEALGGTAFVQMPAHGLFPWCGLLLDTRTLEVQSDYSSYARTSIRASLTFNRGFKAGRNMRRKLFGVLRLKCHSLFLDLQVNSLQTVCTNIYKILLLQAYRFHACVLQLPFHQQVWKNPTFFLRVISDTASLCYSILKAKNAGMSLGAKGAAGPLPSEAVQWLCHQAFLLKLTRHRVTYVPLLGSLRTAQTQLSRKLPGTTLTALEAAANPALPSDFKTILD

Compound: CC1=C(/C=C/C(C)=C/C=C/C(C)=C/C(=O)O)C(C)(C)CCC1 [ATRA, all trans retinoic acid]
chemosensitivity (MTS assay, absorbance at 490 nm) ([1]; 1 μM or 10 μM ATRA, absence of Rhodiola crenulata): little difference in chemosensitivity

telomerase activity ([2]; 24 hr): inhibited telomerase activity
Compound: CC/C(=C(\c1ccccc1)c1ccc(OCCN(C)C)cc1)c1ccccc1 [Tamoxifen, tamoxifen]
telomerase activity ([2]; 72 hr): telomerase activity is starting to return | percentage of cell death ([3]; 24 hours): increased the percentage of cell death | percentage of cell death ([3]; 48 hours): increased the percentage of cell death

Compound: CC1=C(/C=C/C(C)=C/C=C/C(C)=C/C(=O)Nc2ccc(O)cc2)C(C)(C)CCC1 [HPR, N-(4-hydroxyphenyl) retinamide]
chemosensitivity (MTS assay) [1]: Comparable effects

Compound: CC1=C(/C=C/C(C)=C\C=C\C(C)=C\C(=O)O)C(C)(C)CCC1 [9-cis retinoic acid]
chemosensitivity (MTS assay) [1]: Comparable effects
